Measurements: publication PMC4767141, “Discovery of Potent, Orally Bioavailable, Small-Molecule Inhibitors of WNT Signaling from a Cell-Based Pathway Screen” (Journal of Medicinal Chemistry, 2015)

Legend:
BMX = biological target: T1, BMX (Homo sapiens, UniProt P51813); assay: Millipore kinase panel; type: biochemical; details: read-out: % Control
T1 construct: purchased Millipore KinaseProfiler (kinases); Cerep (receptors and ion channels)

NTS1 (NT1) (h) = biological target: T2, NTS1 (NT1) (h) (Homo sapiens, UniProt P30989); assay: CEREP binding panel; details: agonist radioligand, read-out: % Inhibition of Control Specific Binding
T2 construct: purchased Millipore KinaseProfiler (kinases); Cerep (receptors and ion channels)

PIM-2 = biological target: T3, PIM-2 (Homo sapiens, UniProt Q9P1W9); assay: Millipore kinase panel; type: biochemical; details: read-out: % Control
T3 construct: purchased Millipore KinaseProfiler (kinases); Cerep (receptors and ion channels)

ROCK-I = biological target: T4, ROCK-I (Homo sapiens, UniProt Q13464); assay: Millipore kinase panel; type: biochemical; details: read-out: % Control
T4 construct: purchased Millipore KinaseProfiler (kinases); Cerep (receptors and ion channels)

5-HT3 (h) = biological target: T5, 5-HT3 (h) (Homo sapiens, UniProt P46098); assay: CEREP binding panel; details: antagonist radioligand, read-out: % Inhibition of Control Specific Binding
T5 construct: purchased Millipore KinaseProfiler (kinases); Cerep (receptors and ion channels)

5-HT2A (h) = biological target: T6, 5-HT2A (h) (Homo sapiens, UniProt P28223); assay: CEREP binding panel; details: antagonist radioligand, read-out: % Inhibition of Control Specific Binding
T6 construct: purchased Millipore KinaseProfiler (kinases); Cerep (receptors and ion channels)

CDK3/CYCLINE = biological target: T7, CDK3/CYCLINE (Homo sapiens, UniProt Q00526); assay: Millipore kinase panel; type: biochemical; details: read-out: % Control
T7 construct: purchased Millipore KinaseProfiler (kinases); Cerep (receptors and ion channels)
T7 sequence (Q00526 whole entry): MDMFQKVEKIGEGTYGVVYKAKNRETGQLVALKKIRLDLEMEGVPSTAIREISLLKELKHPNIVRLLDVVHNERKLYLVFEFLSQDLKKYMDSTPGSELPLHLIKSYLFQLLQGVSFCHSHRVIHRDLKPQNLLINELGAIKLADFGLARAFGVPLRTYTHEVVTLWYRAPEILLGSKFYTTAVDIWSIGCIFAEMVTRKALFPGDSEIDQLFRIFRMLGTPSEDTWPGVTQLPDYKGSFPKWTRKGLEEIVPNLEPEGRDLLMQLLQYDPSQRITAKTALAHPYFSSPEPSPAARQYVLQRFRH
T7 sequence (P24864 whole entry partner): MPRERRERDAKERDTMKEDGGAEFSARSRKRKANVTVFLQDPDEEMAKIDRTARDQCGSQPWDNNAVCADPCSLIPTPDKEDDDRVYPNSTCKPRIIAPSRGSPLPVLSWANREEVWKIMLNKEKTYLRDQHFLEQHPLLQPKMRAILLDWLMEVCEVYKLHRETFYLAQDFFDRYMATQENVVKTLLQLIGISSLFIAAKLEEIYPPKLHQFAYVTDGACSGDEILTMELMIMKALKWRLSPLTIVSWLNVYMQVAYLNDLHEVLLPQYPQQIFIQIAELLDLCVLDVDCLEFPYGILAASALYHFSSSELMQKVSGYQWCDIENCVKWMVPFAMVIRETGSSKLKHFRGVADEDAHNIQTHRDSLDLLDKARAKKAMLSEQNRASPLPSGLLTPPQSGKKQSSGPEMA

GRK7 = biological target: T8, GRK7 (Homo sapiens, UniProt Q8WTQ7); assay: Millipore kinase panel; type: biochemical; details: read-out: % Control
T8 construct: purchased Millipore KinaseProfiler (kinases); Cerep (receptors and ion channels)
T8 sequence (Q8WTQ7 whole entry): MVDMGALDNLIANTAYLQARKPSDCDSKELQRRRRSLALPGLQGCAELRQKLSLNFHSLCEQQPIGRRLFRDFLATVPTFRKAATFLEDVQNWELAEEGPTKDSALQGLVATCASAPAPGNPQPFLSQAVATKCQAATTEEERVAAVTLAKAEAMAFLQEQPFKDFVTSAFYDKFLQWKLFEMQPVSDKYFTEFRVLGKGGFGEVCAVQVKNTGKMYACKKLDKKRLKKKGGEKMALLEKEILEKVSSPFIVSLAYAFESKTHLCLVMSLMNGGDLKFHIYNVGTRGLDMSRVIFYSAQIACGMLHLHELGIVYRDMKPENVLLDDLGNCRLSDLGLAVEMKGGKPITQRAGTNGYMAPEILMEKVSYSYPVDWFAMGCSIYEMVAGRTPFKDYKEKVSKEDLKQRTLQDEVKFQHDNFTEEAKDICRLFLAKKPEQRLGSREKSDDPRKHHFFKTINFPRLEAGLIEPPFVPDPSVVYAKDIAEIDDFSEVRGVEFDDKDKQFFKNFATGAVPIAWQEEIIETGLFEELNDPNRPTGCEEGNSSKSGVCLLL

sst (non-selective) = assay: CEREP binding panel; details: 10 μM, agonist radioligand
NEK6 = biological target: T9, NEK6 (Homo sapiens, UniProt Q9HC98); assay: Millipore kinase panel; type: biochemical; details: read-out: % Control
T9 construct: purchased Millipore KinaseProfiler (kinases); Cerep (receptors and ion channels)

SRPK1 = biological target: T10, SRPK1 (Homo sapiens, UniProt Q96SB4); assay: Millipore kinase panel; type: biochemical; details: read-out: % Control
T10 construct: purchased Millipore KinaseProfiler (kinases); Cerep (receptors and ion channels)

CCK1 (CCKA) (h) = biological target: T11, CCK1 (CCKA) (h) (Homo sapiens, UniProt P32238); assay: CEREP binding panel; details: agonist radioligand, read-out: % Inhibition of Control Specific Binding
T11 construct: purchased Millipore KinaseProfiler (kinases); Cerep (receptors and ion channels)
T11 sequence (P32238 whole entry): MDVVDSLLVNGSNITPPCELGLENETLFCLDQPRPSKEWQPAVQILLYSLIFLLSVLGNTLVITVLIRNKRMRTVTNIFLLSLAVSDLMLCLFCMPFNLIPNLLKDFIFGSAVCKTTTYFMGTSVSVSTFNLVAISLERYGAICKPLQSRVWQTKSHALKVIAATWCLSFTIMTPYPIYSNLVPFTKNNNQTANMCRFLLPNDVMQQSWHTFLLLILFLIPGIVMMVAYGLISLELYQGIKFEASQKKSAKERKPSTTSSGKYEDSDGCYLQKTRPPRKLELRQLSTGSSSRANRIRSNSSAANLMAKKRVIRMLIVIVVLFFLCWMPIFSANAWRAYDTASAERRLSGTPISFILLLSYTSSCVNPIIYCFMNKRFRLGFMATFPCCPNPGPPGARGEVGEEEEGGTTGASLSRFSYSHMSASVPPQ

LIMK1 = biological target: T12, LIMK1 (Homo sapiens, UniProt P53667); assay: Millipore kinase panel; type: biochemical; details: read-out: % Control
T12 construct: purchased Millipore KinaseProfiler (kinases); Cerep (receptors and ion channels)

STK33 = biological target: T13, STK33 (Homo sapiens, UniProt Q9BYT3); assay: Millipore kinase panel; type: biochemical; details: read-out: % Control
T13 construct: purchased Millipore KinaseProfiler (kinases); Cerep (receptors and ion channels)
T13 sequence (Q9BYT3 whole entry): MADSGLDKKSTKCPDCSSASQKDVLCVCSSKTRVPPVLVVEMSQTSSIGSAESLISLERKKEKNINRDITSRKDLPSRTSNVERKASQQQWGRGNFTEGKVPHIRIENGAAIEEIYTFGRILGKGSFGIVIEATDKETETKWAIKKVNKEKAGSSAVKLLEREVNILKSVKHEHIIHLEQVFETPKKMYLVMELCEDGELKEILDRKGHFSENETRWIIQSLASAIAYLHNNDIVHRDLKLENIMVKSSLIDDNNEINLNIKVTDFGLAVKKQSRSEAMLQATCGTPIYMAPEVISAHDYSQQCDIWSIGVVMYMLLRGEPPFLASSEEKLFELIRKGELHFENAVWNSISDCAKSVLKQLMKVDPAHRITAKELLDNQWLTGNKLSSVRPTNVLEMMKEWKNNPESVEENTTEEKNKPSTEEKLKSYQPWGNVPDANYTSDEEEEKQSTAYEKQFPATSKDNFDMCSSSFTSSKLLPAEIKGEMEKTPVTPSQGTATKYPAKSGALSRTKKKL

RON = biological target: T14, RON (Homo sapiens, UniProt Q04912); assay: Millipore kinase panel; type: biochemical; details: read-out: % Control
T14 construct: purchased Millipore KinaseProfiler (kinases); Cerep (receptors and ion channels)

MSK2 = biological target: T15, MSK2 (Homo sapiens, UniProt O75676); assay: Millipore kinase panel; type: biochemical; details: read-out: % Control
T15 construct: purchased Millipore KinaseProfiler (kinases); Cerep (receptors and ion channels)

YES = biological target: T16, YES (Homo sapiens, UniProt P07947); assay: Millipore kinase panel; type: biochemical; details: read-out: % Control
T16 construct: purchased Millipore KinaseProfiler (kinases); Cerep (receptors and ion channels)

PKG1ALPHA = biological target: T17, PKG1ALPHA (Homo sapiens, UniProt Q13976); assay: Millipore kinase panel; type: biochemical; details: read-out: % Control
T17 construct: purchased Millipore KinaseProfiler (kinases); Cerep (receptors and ion channels)

Na+ channel (site 2) = assay: CEREP binding panel; details: 10 μM, antagonist radioligand
MINK = biological target: T18, MINK (Homo sapiens, UniProt Q8N4C8); assay: Millipore kinase panel; type: biochemical; details: read-out: % Control
T18 construct: purchased Millipore KinaseProfiler (kinases); Cerep (receptors and ion channels)

CAMKI = biological target: T19, CAMKI (Homo sapiens, UniProt Q14012); assay: Millipore kinase panel; type: biochemical; details: read-out: % Control
T19 construct: purchased Millipore KinaseProfiler (kinases); Cerep (receptors and ion channels)

PRKAA1 = biological target: T20, PRKAA1 (Homo sapiens, UniProt Q13131); assay: Millipore kinase panel; type: biochemical; details: read-out: % Control
T20 construct: purchased Millipore KinaseProfiler (kinases); Cerep (receptors and ion channels)

RSK4 = biological target: T21, RSK4 (Homo sapiens, UniProt Q9UK32); assay: Millipore kinase panel; type: biochemical; details: read-out: % Control
T21 construct: purchased Millipore KinaseProfiler (kinases); Cerep (receptors and ion channels)
T21 sequence (Q9UK32 whole entry): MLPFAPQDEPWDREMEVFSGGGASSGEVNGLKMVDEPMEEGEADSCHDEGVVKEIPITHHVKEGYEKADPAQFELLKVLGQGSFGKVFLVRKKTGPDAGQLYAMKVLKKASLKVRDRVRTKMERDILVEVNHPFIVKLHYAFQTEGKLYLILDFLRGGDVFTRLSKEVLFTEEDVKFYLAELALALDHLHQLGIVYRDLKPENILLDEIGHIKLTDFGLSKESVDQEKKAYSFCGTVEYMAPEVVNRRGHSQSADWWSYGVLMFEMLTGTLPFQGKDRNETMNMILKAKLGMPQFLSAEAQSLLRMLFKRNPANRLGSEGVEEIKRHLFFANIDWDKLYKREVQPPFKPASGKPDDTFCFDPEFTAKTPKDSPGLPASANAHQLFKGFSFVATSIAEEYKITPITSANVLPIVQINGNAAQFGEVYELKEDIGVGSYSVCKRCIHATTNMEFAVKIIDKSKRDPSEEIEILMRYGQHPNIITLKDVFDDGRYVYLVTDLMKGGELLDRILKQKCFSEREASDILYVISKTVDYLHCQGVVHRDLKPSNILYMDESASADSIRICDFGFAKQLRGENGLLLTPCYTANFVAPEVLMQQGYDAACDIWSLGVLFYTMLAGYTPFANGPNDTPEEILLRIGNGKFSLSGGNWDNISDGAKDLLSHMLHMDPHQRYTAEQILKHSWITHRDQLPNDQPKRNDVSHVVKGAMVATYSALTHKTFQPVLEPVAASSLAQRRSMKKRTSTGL

SRC = biological target: T22, SRC (Homo sapiens, UniProt P12931); assay: Millipore kinase panel; type: biochemical; details: read-out: % Control
T22 construct: purchased Millipore KinaseProfiler (kinases); Cerep (receptors and ion channels)

SNK = biological target: T23, SNK (Homo sapiens, UniProt Q9NYY3); assay: Millipore kinase panel; type: biochemical; details: read-out: % Control
T23 construct: purchased Millipore KinaseProfiler (kinases); Cerep (receptors and ion channels)
T23 sequence (Q9NYY3 whole entry): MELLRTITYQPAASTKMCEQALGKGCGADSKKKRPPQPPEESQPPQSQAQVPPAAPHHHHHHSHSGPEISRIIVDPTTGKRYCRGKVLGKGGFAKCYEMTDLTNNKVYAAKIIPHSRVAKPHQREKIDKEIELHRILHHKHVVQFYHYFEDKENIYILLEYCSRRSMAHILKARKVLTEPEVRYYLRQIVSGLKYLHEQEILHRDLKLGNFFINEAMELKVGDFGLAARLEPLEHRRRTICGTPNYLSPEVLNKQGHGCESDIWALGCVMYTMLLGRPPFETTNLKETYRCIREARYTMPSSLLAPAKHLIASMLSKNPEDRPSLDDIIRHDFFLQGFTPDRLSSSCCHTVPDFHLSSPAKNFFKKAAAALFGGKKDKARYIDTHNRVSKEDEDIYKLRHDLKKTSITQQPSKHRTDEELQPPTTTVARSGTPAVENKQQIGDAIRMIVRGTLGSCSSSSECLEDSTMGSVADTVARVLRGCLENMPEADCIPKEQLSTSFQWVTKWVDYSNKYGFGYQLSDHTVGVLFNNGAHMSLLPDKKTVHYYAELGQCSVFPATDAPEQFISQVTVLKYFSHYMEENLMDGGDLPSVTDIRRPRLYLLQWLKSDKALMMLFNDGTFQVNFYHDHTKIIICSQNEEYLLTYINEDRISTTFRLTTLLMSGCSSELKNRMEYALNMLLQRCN

AURKB = biological target: T24, AURKB (Homo sapiens, UniProt Q96GD4); assay: Millipore kinase panel; type: biochemical; details: read-out: % Control
T24 construct: purchased Millipore KinaseProfiler (kinases); Cerep (receptors and ion channels)

FGR = biological target: T25, FGR (Homo sapiens, UniProt P09769); assay: Millipore kinase panel; type: biochemical; details: read-out: % Control
T25 construct: purchased Millipore KinaseProfiler (kinases); Cerep (receptors and ion channels)

MLCK = biological target: T26, MLCK (Homo sapiens, UniProt Q9H1R3); assay: Millipore kinase panel; type: biochemical; details: read-out: % Control
T26 construct: purchased Millipore KinaseProfiler (kinases); Cerep (receptors and ion channels)

HIPK1 = biological target: T27, HIPK1 (Homo sapiens, UniProt Q86Z02); assay: Millipore kinase panel; type: biochemical; details: read-out: % Control
T27 construct: purchased Millipore KinaseProfiler (kinases); Cerep (receptors and ion channels)

HIPK2 = biological target: T28, HIPK2 (Homo sapiens, UniProt Q9H2X6); assay: Millipore kinase panel; type: biochemical; details: read-out: % Control
T28 construct: purchased Millipore KinaseProfiler (kinases); Cerep (receptors and ion channels)

TIE2 = biological target: T29, TIE2 (Homo sapiens, UniProt Q02763); assay: Millipore kinase panel; type: biochemical; details: read-out: % Control
T29 construct: purchased Millipore KinaseProfiler (kinases); Cerep (receptors and ion channels)

dopamine transporter (h) = biological target: T30, dopamine transporter (h) (Homo sapiens, UniProt Q01959); assay: CEREP binding panel; details: antagonist radioligand, read-out: % Inhibition of Control Specific Binding
T30 construct: purchased Millipore KinaseProfiler (kinases); Cerep (receptors and ion channels)

FGFR1 = biological target: T31, FGFR1 (Homo sapiens, UniProt P11362); assay: Millipore kinase panel; type: biochemical; details: read-out: % Control
T31 construct: purchased Millipore KinaseProfiler (kinases); Cerep (receptors and ion channels)
T31 sequence (P11362 22-822): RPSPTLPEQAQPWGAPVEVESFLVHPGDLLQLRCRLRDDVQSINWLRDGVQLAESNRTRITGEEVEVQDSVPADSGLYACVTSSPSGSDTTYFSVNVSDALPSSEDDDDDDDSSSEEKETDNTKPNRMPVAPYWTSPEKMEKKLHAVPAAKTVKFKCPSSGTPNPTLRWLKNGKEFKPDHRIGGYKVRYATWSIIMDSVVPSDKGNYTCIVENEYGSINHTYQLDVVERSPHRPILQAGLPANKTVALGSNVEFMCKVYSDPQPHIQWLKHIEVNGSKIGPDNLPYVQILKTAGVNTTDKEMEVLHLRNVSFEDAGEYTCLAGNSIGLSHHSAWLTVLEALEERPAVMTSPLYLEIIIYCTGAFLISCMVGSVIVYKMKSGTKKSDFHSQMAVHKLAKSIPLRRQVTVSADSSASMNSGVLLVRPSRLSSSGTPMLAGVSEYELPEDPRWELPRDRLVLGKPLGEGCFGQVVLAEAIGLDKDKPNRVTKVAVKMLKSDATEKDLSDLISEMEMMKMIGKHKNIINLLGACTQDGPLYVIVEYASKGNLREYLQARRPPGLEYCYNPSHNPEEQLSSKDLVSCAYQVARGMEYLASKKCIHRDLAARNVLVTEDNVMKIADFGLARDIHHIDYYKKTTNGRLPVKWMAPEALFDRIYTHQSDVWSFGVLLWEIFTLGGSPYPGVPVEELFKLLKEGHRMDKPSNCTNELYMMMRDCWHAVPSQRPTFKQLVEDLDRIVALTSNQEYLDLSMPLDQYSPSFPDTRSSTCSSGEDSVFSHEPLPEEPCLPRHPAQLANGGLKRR

β1 (h) = biological target: T32, β1 (h) (Homo sapiens, UniProt P08588); assay: CEREP binding panel; details: agonist radioligand, read-out: % Inhibition of Control Specific Binding
T32 construct: purchased Millipore KinaseProfiler (kinases); Cerep (receptors and ion channels)

PDGFRALPHA = biological target: T33, PDGFRALPHA (Homo sapiens, UniProt P16234); assay: Millipore kinase panel; type: biochemical; details: read-out: % Control
T33 construct: purchased Millipore KinaseProfiler (kinases); Cerep (receptors and ion channels)

LKB1 = biological target: T34, LKB1 (Homo sapiens, UniProt Q15831); assay: Millipore kinase panel; type: biochemical; details: read-out: % Control
T34 construct: purchased Millipore KinaseProfiler (kinases); Cerep (receptors and ion channels)

TSSK1 = biological target: T35, TSSK1 (Homo sapiens, UniProt Q9BXA7); assay: Millipore kinase panel; type: biochemical; details: read-out: % Control
T35 construct: purchased Millipore KinaseProfiler (kinases); Cerep (receptors and ion channels)

Y1 (h) = biological target: T36, Y1 (h) (Homo sapiens, UniProt P25929); assay: CEREP binding panel; details: agonist radioligand, read-out: % Inhibition of Control Specific Binding
T36 construct: purchased Millipore KinaseProfiler (kinases); Cerep (receptors and ion channels)

VRK2 = biological target: T37, VRK2 (Homo sapiens, UniProt Q86Y07); assay: Millipore kinase panel; type: biochemical; details: read-out: % Control
T37 construct: purchased Millipore KinaseProfiler (kinases); Cerep (receptors and ion channels)
T37 sequence (Q86Y07 whole entry): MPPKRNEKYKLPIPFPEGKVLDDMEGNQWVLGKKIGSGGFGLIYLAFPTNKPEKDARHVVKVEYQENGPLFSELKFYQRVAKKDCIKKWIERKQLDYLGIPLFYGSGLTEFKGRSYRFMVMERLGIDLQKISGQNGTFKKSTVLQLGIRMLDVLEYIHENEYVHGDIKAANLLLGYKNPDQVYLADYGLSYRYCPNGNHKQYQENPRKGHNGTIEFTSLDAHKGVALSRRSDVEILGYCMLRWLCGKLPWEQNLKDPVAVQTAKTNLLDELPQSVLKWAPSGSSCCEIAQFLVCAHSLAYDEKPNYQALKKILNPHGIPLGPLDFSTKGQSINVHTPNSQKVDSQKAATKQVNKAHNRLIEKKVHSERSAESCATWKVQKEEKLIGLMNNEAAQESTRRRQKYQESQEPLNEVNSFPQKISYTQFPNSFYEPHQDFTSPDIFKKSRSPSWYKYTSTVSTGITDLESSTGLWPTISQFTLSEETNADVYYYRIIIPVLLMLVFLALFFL

H2 (h) = biological target: T38, H2 (h) (Homo sapiens, UniProt P25021); assay: CEREP binding panel; details: antagonist radioligand, read-out: % Inhibition of Control Specific Binding
T38 construct: purchased Millipore KinaseProfiler (kinases); Cerep (receptors and ion channels)

BRSK2 = biological target: T39, BRSK2 (Homo sapiens, UniProt Q8IWQ3); assay: Millipore kinase panel; type: biochemical; details: read-out: % Control
T39 construct: purchased Millipore KinaseProfiler (kinases); Cerep (receptors and ion channels)

SIK = biological target: T40, SIK (Homo sapiens, UniProt P57059); assay: Millipore kinase panel; type: biochemical; details: read-out: % Control
T40 construct: purchased Millipore KinaseProfiler (kinases); Cerep (receptors and ion channels)

β2 (h) = biological target: T41, β2 (h) (Homo sapiens, UniProt P07550); assay: CEREP binding panel; details: agonist radioligand, read-out: % Inhibition of Control Specific Binding
T41 construct: purchased Millipore KinaseProfiler (kinases); Cerep (receptors and ion channels)

FLT1 = biological target: T42, FLT1 (Homo sapiens, UniProt P17948); assay: Millipore kinase panel; type: biochemical; details: read-out: % Control
T42 construct: purchased Millipore KinaseProfiler (kinases); Cerep (receptors and ion channels)

`O=C1NCCC12CCN(c1c(Cl)cncc1-c1ccc(N3CCOCC3)cc1)CC2` [Compound 44, 8-(3-Chloro-5-(4-morpholin-4-ylphenyl)pyridin-4-yl)-2,8-diazaspiro[4.5]decan-1-one] showed a remaining activity at 1 µM (BMX) of -2%, an inhibition at 10 µM (NTS1 (NT1) (h)) of -4% and a remaining activity at 1 µM (PIM-2) of 7%. For the same compound, the remaining activity at 1 µM (ROCK-I) was -7%, the inhibition at 10 µM (5-HT3 (h)) was -3% and the inhibition at 10 µM (5-HT2A (h)) was -1%. The remaining activity at 1 µM (CDK3/CYCLINE) was -7%, the remaining activity at 1 µM (GRK7) was -2% and the “% Inhibition of Control Specific Binding” value (sst (non-selective)) was -16%. It also gave a remaining activity at 1 µM (NEK6) of -4%, a remaining activity at 1 µM (SRPK1) of -20% and an inhibition at 10 µM (CCK1 (CCKA) (h)) of -16%. The remaining activity at 1 µM (LIMK1) was -3%, the remaining activity at 1 µM (STK33) was 4% and the remaining activity at 1 µM (RON) was 13%. The remaining activity at 1 µM (MSK2) was 0%, the remaining activity at 1 µM (YES) was -11% and the remaining activity at 1 µM (PKG1ALPHA) was 8%. For the same compound, the “% Inhibition of Control Specific Binding” value (Na+ channel (site 2)) was 15%, the remaining activity at 1 µM (MINK) was 7% and the remaining activity at 1 µM (CAMKI) was -4%. The remaining activity at 1 µM (PRKAA1) was 15%, the remaining activity at 1 µM (RSK4) was 2% and the remaining activity at 1 µM (SRC) was 4%. It also gave a remaining activity at 1 µM (SNK) of -5%, a remaining activity at 1 µM (AURKB) of -1% and a remaining activity at 1 µM (FGR) of 16%. For the same compound, the remaining activity at 1 µM (MLCK) was 1%, the remaining activity at 1 µM (HIPK1) was 7% and the remaining activity at 1 µM (HIPK2) was 2%. The remaining activity at 1 µM (TIE2) was 19%, the inhibition at 10 µM (dopamine transporter (h)) was -13% and the remaining activity at 1 µM (FGFR1) was 13%. It also gave an inhibition at 10 µM (β1 (h)) of 9%, a remaining activity at 1 µM (PDGFRALPHA) of 2% and a remaining activity at 1 µM (LKB1) of 7%. For the same compound, the remaining activity at 1 µM (TSSK1) was 11%, the inhibition at 10 µM (Y1 (h)) was -10% and the remaining activity at 1 µM (VRK2) was -5%. It also gave an inhibition at 10 µM (H2 (h)) of -16%, a remaining activity at 1 µM (BRSK2) of 14% and a remaining activity at 1 µM (SIK) of -3%. For the same compound, the inhibition at 10 µM (β2 (h)) was -3% and the remaining activity at 1 µM (FLT1) was 10%.
